# Measured values published in PubChem BioAssay (NCI).
# “And” between values parts separate entries of the source, which are not always exact repeats. Identical values can stand only once.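 Following 48 hours of exposure in 96-well plates, responses at five concentrations were used to interpolate endpoints linearly. GI50: concentration for 50% inhibition of growth. Definition used: TGI = concentration required for complete inhibition of growth.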
# What was measured:
# Assay in all cases: growth of human tumour cells (NCI), 48 h
# ACHN renal = tested on: ACHN renal
# RXF 393 renal = tested on: RXF 393 renal
# M14 melanoma = tested on: M14 melanoma
# MDA-MB-435 = tested on: MDA-MB-435
# IGROV1 ovarian = tested on: IGROV1 ovarian
# K-562 leukemia = tested on: K-562 leukemia
# HOP-62 NSCLC = tested on: HOP-62 NSCLC
# UACC-257 melanoma = tested on: UACC-257 melanoma
# MDA-N = tested on: MDA-N
# SK-MEL-5 melanoma = tested on: SK-MEL-5 melanoma
Compound,TGI (ACHN renal),TGI (RXF 393 renal),TGI (M14 melanoma),TGI (MDA-MB-435),TGI (IGROV1 ovarian),TGI (K-562 leukemia),TGI (HOP-62 NSCLC),TGI (UACC-257 melanoma),TGI (MDA-N),TGI (SK-MEL-5 melanoma),GI50 (ACHN renal),GI50 (M14 melanoma),GI50 (MDA-MB-435),GI50 (IGROV1 ovarian),GI50 (K-562 leukemia),GI50 (UACC-257 melanoma),GI50 (MDA-N),GI50 (SK-MEL-5 melanoma)
C=C(Br)CNC(=O)CCC(=O)NCC(=C)Br,> 100 µM,> 100 µM,> 100 µM,> 100 µM,> 100 µM,> 100 µM,> 100 µM,> 100 µM,> 100 µM,> 100 µM,,,,,,,,
BrC(c1cccc2ccccc12)c1cccc2ccccc12,52.3 µM,27.9 µM,37.6 µM,21.2 µM,31.8 µM,> 100 µM,27.1 µM,53.3 µM,32.6 µM,31.4 µM,,,,,,,,
COc1cc(Cc2nccc3cc(OC)c(OC)cc23)c(N=NN(C)C)cc1OC,> 100 µM,16.4 µM,39.3 µM,47.3 µM,39.2 µM,> 100 µM,> 100 µM,44.9 µM,46.1 µM,26.4 µM,,,,,,,,
Cc1ccnc(NC(NC(=O)c2ccccc2)(C(F)(F)F)C(F)(F)F)c1,> 100 µM,> 100 µM,> 100 µM,> 100 µM,> 100 µM,> 100 µM,> 100 µM,> 100 µM,> 100 µM,> 100 µM,,,,,,,,
N#Cc1c(N)nc(Sc2ccccc2N)c(C#N)c1-c1ccc(Cl)cc1,39.5 µM,49.9 µM,38.5 µM,37.5 µM,33.6 µM,> 42 µM,17.2 µM,62.9 µM,40.2 µM,> 55 µM,,,,,,,,
Oc1ccc2c(c1)-c1c(c3ccccc3n1CCN1CCOCC1)CC2,53.3 µM,> 100 µM,88 µM,> 100 µM,> 100 µM,> 100 µM,> 100 µM,84.6 µM,> 100 µM,> 100 µM,,,,,,,,
CCOC(=O)CCC(NC(=O)c1ccc(OCc2ccc3nc(-c4ccccc4)c(Cl)nc3c2)cc1)C(=O)OCC (stereo not drawn),> 31.6 µM,8.6 µM,> 31.6 µM,> 31.6 µM,> 31.6 µM,> 100 µM,> 31.6 µM,> 31.6 µM,> 100 µM,> 31.6 µM,,,,,,,,
Nc1onc2c1Cc1c(noc1N)-c1ccccc1-2,> 100 µM,> 100 µM,> 100 µM,> 100 µM,> 100 µM,> 100 µM,> 100 µM,> 100 µM,> 100 µM,> 100 µM,,,,,,,,
Cc1ccc(NC(=O)c2cc(S(=O)(=O)Nc3nc4ncccc4[nH]3)c(SSc3cc(Cl)c(C(=O)Nc4ccc(C)cc4)cc3S(=O)(=O)Nc3nc4ncccc4[nH]3)cc2Cl)cc1,> 100 µM,> 100 µM,> 100 µM,> 100 µM,> 100 µM,> 100 µM,> 100 µM,> 100 µM,> 100 µM,> 100 µM,,,,,,,,
CCCCCCCCCCCCC(O)[C@H]1CC[C@H](C(O)CCCCCC(=O)CCCCC2CC(C(C)=O)C(=O)O2)O1 (stereo partly drawn),70.4 µM,22.2 µM,26.2 µM,35.6 µM,71.6 µM,> 63.6 µM,26.6 µM,19.1 µM,23.2 µM,4.97 µM and 20.4 µM,1.68 µM,6.01 µM,1.92 µM,4.3 µM,1.91 µM,1.3 µM,7.67 µM,1.11 µM
O=c1/c(=C/c2ccc(-c3ccc(Cl)cc3Cl)o2)sc2n1[C@@H](c1ccc(Cl)cc1)C=C(c1cc(F)c(Cl)cc1Cl)N=2,> 100 µM,> 100 µM,> 100 µM,> 100 µM,> 100 µM,> 100 µM,34.6 µM,> 100 µM,> 100 µM,> 100 µM,,,,,,,,
CC(C)(C)OC(=O)N1C(c2cccnc2)=CC[C@H]2C3CC=C(c4cccnc4)[C@@]3(C)CC[C@@H]21 (stereo partly drawn),11.3 µM,14.6 µM,17.7 µM,5.7 µM,16.4 µM,38.6 µM,16.3 µM,10.6 µM,9.2 µM,4.18 µM,,,,,,,,
OCCNCNc1nc(NCNCCO)nc(N(CNCCO)CNCCO)n1,> 68.9 µM,31.1 µM,36.6 µM,35.8 µM,49.4 µM,50.3 µM,43.2 µM,40 µM,38.4 µM,28.5 µM,,,,,,,,
CC(C)CC(NC(=O)OC(C)(C)C)C(=O)Nc1ccc(Nc2nc(F)nc(-c3c4ccccc4cn3C)n2)cc1 (stereo not drawn),> 100 µM,> 87.1 µM,> 100 µM,> 100 µM,> 100 µM,> 100 µM,42.6 µM,> 100 µM,> 100 µM,> 100 µM,,,,,,,,
CCCCCCCCCCNC(=O)CCC(NC(=O)c1ccc(N(C)Cc2cnc3nc(N)nc(N)c3n2)cc1)C(=O)NCCCCCCCCCC (stereo not drawn),> 100 µM,19.3 µM,57.7 µM,15.4 µM,20.1 µM,> 32.2 µM,> 95.7 µM,> 60.1 µM,21.9 µM,12.6 µM,,,,,,,,
CC(=O)OCc1ccc2oc(=O)c(C(=O)Oc3ccccc3)cc2c1,> 100 µM,> 100 µM,> 100 µM,> 100 µM,> 100 µM,30 µM,> 100 µM,> 100 µM,> 100 µM,> 100 µM,,,,,,,,
NC(N)=Nc1ccc(CC(N)C(=O)O)cc1 (stereo not drawn),> 12.5 µM,> 12.5 µM,> 12.5 µM,> 12.5 µM,> 12.5 µM,> 12.5 µM,> 12.5 µM,> 12.5 µM,> 12.5 µM,> 12.5 µM,,,,,,,,
N#C/C(N)=C(\C#N)NC(=O)C(=O)N/C(C#N)=C(\N)C#N,> 100 µM,> 100 µM,> 100 µM,> 100 µM,> 100 µM,> 100 µM,> 100 µM,> 100 µM,> 100 µM,> 100 µM,,,,,,,,
COc1ccc(C(=O)/C=C/c2cc(O)c(O)c(F)c2F)c(OC)c1,> 100 µM,59.6 µM,> 100 µM,82.9 µM,> 100 µM,> 100 µM,92.7 µM,41.8 µM,80.3 µM,25.3 µM,,,,,,,,
